Key:
Type in all cases: in vivo
[1] = test system: Erysiphe graminis tritici (powdery mildew); assay: Greenhouse Test 1, foliar spray fungicide screen (POWD MDEW), host wheat; conditions: disease control rating, 400 ppm (+++ at 100 ppm)
[2] = test system: Pyricularia oryzae (rice blast); conditions: disease control rating, foliar spray, host rice; 400 ppm (+++ at 100 ppm)
[3] = test system: Puccinia recondita tritici (leaf rust); assay: Greenhouse Test 1, foliar spray fungicide screen (LEAF RUST), host wheat; conditions: disease control rating, 400 ppm (+++ at 100 ppm)
[4] = test system: Botrytis cinerea (gray mold); assay: Greenhouse Test 1, foliar spray fungicide screen (GRAY MOLD), host grape berries; conditions: disease control rating, 400 ppm (+++ at 100 ppm)
[5] = test system: Pseudoperonospora cubensis (downy mildew); assay: Greenhouse Test 1, foliar spray fungicide screen (DOWN MDEW), host squash; conditions: disease control rating, 400 ppm (+++ at 100 ppm)
[6] = test system: Cercospora beticola (leaf spot); assay: Greenhouse Test 1, foliar spray fungicide screen (LEAF SPOT), host sugar beet; conditions: disease control rating, 400 ppm (+++ at 100 ppm)
[7] = test system: Venturia inaequalis (apple scab); assay: Greenhouse Test 1, foliar spray fungicide screen (APPL SCAB), host apple seedling; conditions: disease control rating, 400 ppm (+++ at 100 ppm)
[8] = test system: Septoria tritici (leaf blotch); assay: Greenhouse Test 1, foliar spray fungicide screen (LEAF BLOT), host wheat; conditions: disease control rating, 400 ppm (+++ at 100 ppm)
[9] = test system: Southern corn rootworm (Diabrotica undecimpuctata howardi Barber); assay: Mite/insect screen, soil treatment (CRW); conditions: Diabrotica, soil, read-out: CRW RESULTS %
Outline: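 Compounds dissolved in acetone/alcohol (50:50) with Toximul R/S emulsifiers, diluted with water. Soil (15 g, with presoaked corn seed) treated with 1 mL test solution, dried 6–12 h, then five 2–3 instar larvae added; held at 23°C. Percent mortality and phytotoxicity scored after standard exposure periods.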

[10] = test system: southern armyworm (Spodopetra eridania Cramer); assay: Mite/insect screen, sprayed squash leaves (SAW); conditions: Spodoptera eridania, read-out: SAW RESULTS %
Outline: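 Compounds dissolved in acetone/alcohol with TOXIMUL R/S emulsifiers, diluted with water to test concentrations, and sprayed to runoff on both leaf surfaces at 10 psi, then dried 1 h. Excised treated squash leaves given southern armyworm larvae; aphid and spider mite tests on sprayed squash cotyledons. Percent mortality and phytotoxicity scored after standard exposure.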

[11] = test system: Twospotted spider mites (Tetranychus urticae Koch); assay: Mite/insect screen, sprayed squash cotyledons (SM); conditions: Tetranychus urticae, read-out: SM RESULTS %
Outline: (§1)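 Acetone/alcohol (50:50) + emulsifier blends 23 g/L and 13 g/L; water dilution to test concs. Spray both leaf surfaces to runoff, dry 1 h. For armyworm, 2 excised uninfested leaves into Petri dish with larvae. Readout: % mortality, phytotoxicity.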

[12] = test system: melon aphids (Aphis gossypii Glover); assay: Mite/insect screen, sprayed squash cotyledons (MA); conditions: Aphis gossypii, read-out: MA RESULTS %
Outline: as §1

Erysiphe graminis hordei = assay: Fungicide field tests; conditions: crop: barley
Description: (§2) Selected compounds were field tested on various crops against a variety of pathogens. […]

[13] = test system: Erysiphe graminis tritici; assay: Fungicide field tests; conditions: crop: wheat
Description: as §2

Erysiphe sp. = assay: Fungicide field tests; conditions: crop: sugar beet
Description: as §2

Plasmopara viticola = assay: Fungicide field tests; conditions: crop: grape
Description: as §2

[14] = test system: Pseudocercosporella herpotrichoides; assay: Fungicide field tests; conditions: crop: wheat
Description: as §2

Pyrenophora teres = assay: Fungicide field tests; conditions: crop: barley
Description: as §2

Rhynchosporium secalis = assay: Fungicide field tests; conditions: crop: barley
Description: as §2

Sphaerotheca fuliginea = assay: Fungicide field tests; conditions: crop: cucumber
Description: as §2

Dawson-hop aphid = assay: Mite and insect field trials; conditions: plant: hops
Experimental: (§3) 4-[2-[4-(t-butyl)phenyl]ethoxy]quinazoline and 4-[2-(1,1'-biphenyl)-4 biphenyl)-4-ylethoxy]quinazoline were evaluated against a variety of mite and insect species in field trials.

European red mite = assay: Mite and insect field trials; conditions: plant: apples
Experimental: as §3

apple aphid = assay: Mite and insect field trials; conditions: plant: apples
Experimental: as §3

apple rust mite = assay: Mite and insect field trials; conditions: plant: apples
Experimental: as §3

bean aphid = assay: Mite and insect field trials; conditions: plant: bean, faba broad
Experimental: as §3

black citrus aphid = assay: Mite and insect field trials; conditions: plant: lemon
Experimental: as §3

cereal aphid = assay: Mite and insect field trials; conditions: plant: barley
Experimental: as §3

citrus rust mite = assay: Mite and insect field trials; conditions: tested on grapefruit
Experimental: as §3

cotton aphid = assay: Mite and insect field trials; conditions: plant: cotton
Experimental: as §3

grape leafhopper = assay: Mite and insect field trials; conditions: plant: grape (European)
Experimental: as §3

grape thrips = assay: Mite and insect field trials; conditions: plant: grape (European)
Experimental: as §3

green cloverworm = assay: Mite and insect field trials; conditions: plant: alfalfa (Lucerne)
Experimental: as §3

green peach aphid = assay: Mite and insect field trials
Experimental: as §3

greenhouse thrips = assay: Mite and insect field trials; conditions: plant: azaleas
Experimental: as §3

pea aphid = assay: Mite and insect field trials
Experimental: as §3

potato aphid = assay: Mite and insect field trials; conditions: plant: turnip
Experimental: as §3

potato leafhopper = assay: Mite and insect field trials; conditions: plant: alfalfa (Lucerne)
Experimental: as §3

rosy apple aphid = assay: Mite and insect field trials; conditions: plant: apples
Experimental: as §3

tarnished plant bug = assay: Mite and insect field trials; conditions: plant: alfalfa (Lucerne)
Experimental: as §3

thrips = assay: Mite and insect field trials; conditions: plant: privet
Experimental: as §3

twospotted spider mite = assay: Mite and insect field trials
Experimental: as §3

wheat aphid = assay: Mite and insect field trials; conditions: plant: wheat
Experimental: as §3

white apple leafhopper = assay: Mite and insect field trials; conditions: plant: apples
Experimental: as §3

yellow hickory aphid = assay: Mite and insect field trials; conditions: plant: pecan nut
Experimental: as §3

How did the “POWD MDEW” value [1] turn out when CC(C)(C)c1ccc(CCOc2ncnc3ccccc23)cc1 [Example 2, 4-[2-[4-(t-butyl)phenyl]ethoxy]quinazoline] was run?
The value was “++ (++ = 90-100% control at 400 ppm)”.

What about the “RICE BLAST” value [2] of the same molecule?
Its value is “+++ (+++ = 90-100% control at 100 ppm)”.

And the “LEAF RUST” value [3]?
Its value is “+++ (+++ = 90-100% control at 100 ppm)”.

What about the “GRAY MOLD” value [4] of the same molecule?
The value was “- (- = 0-19% control at 400 ppm)”.

What about the “DOWN MDEW” value [5] of the same molecule?
The value was “+++ (+++ = 90-100% control at 100 ppm)”.

What about the “LEAF SPOT” value [6] of the same molecule?
Its value is “++ (++ = 90-100% control at 400 ppm)”.

What about the “APPL SCAB” value [7] of the same molecule?
The value was “+ (+ = 20-89% control at 400 ppm)”.

And the “LEAF BLOT” value [8]?
The value was “+ (+ = 20-89% control at 400 ppm)”.

What about the mortality at 12 ppm [9] of the same molecule?
The mortality at 12 ppm was 0%.

What about the mortality at 24 ppm [9] of the same molecule?
Its mortality at 24 ppm is 0%.

What about the mortality at 200 ppm [10] of the same molecule?
The mortality at 200 ppm was 0%.

And the mortality at 400 ppm [10]?
The mortality at 400 ppm was 20%.

What about the mortality at 200 ppm [11] of the same molecule?
The mortality at 200 ppm was 100%.

What about the mortality at 400 ppm [11] of the same molecule?
Its mortality at 400 ppm is 90%.

What about the mortality at 200 ppm [12] of the same molecule?
The mortality at 200 ppm was 90%.

What about the mortality at 400 ppm [12] of the same molecule?
Its mortality at 400 ppm is 80%.

What about the “pathogen against which compound demonstrated activity in field tests” value (“pathogen” for short) (Erysiphe graminis hordei) of the same molecule?
Its value is “Erysiphe graminis hordei”.

What about the “pathogen” value [13] of the same molecule?
Its value is “Erysiphe graminis tritici”.

What about the “pathogen” value (Erysiphe sp.) of the same molecule?
Its value is “Erysiphe sp”.

What about the “pathogen” value (Plasmopara viticola) of the same molecule?
The value was “Plasmopara viticola”.

And the “pathogen” value [14]?
Its value is “Pseudocercosporella herpotrichoides”.

And the “pathogen” value (Pyrenophora teres)?
Its value is “Pyrenophora teres”.

And the “pathogen” value (Rhynchosporium secalis)?
The value was “Rhynchosporium secalis”.

And the “pathogen” value (Sphaerotheca fuliginea)?
Its value is “Sphaerotheca fuliginea”.

And the “mite or insect species against which they showed activity in field trials” value (“mite or insect species” below) (Dawson-hop aphid)?
Its value is “Dawson-hop aphid”.

What about the “mite or insect species” value (European red mite) of the same molecule?
The value was “European red mite”.

And the “mite or insect species” value (apple aphid)?
The value was “apple aphid”.

And the “mite or insect species” value (apple rust mite)?
Its value is “apple rust mite”.

What about the “mite or insect species” value (bean aphid) of the same molecule?
The value was “bean aphid”.

And the “mite or insect species” value (black citrus aphid)?
Its value is “black citrus aphid”.

And the “mite or insect species” value (cereal aphid)?
The value was “cereal aphid”.

What about the “activity against citrus rust mite in field trials” value (citrus rust mite) of the same molecule?
Its value is “showing activity”.

And the “mite or insect species” value (cotton aphid)?
The value was “cotton aphid”.

What about the “mite or insect species” value (grape leafhopper) of the same molecule?
Its value is “grape leafhopper”.

And the “mite or insect species” value (grape thrips)?
Its value is “grape thrips”.

What about the “mite or insect species” value (green cloverworm) of the same molecule?
The value was “green cloverworm”.

What about the “mite or insect species” value (green peach aphid; plant: apples) of the same molecule?
The value was “green peach aphid”.

And the “mite or insect species” value (green peach aphid; plant: sugar beet)?
The value was “green peach aphid”.

And the “mite or insect species” value (greenhouse thrips)?
Its value is “greenhouse thrips”.

And the “mite or insect species” value (pea aphid; plant: alfalfa (Lucerne))?
The value was “pea aphid”.

What about the “mite or insect species” value (pea aphid; plant: pea, garden (English)) of the same molecule?
The value was “pea aphid”.

And the “mite or insect species” value (potato aphid)?
Its value is “potato aphid”.

What about the “mite or insect species” value (potato leafhopper) of the same molecule?
Its value is “potato leafhopper”.

What about the “mite or insect species” value (rosy apple aphid) of the same molecule?
The value was “rosy apple aphid”.

And the “mite or insect species” value (tarnished plant bug)?
The value was “tarnished plant bug”.

And the “mite or insect species” value (thrips)?
The value was “thrips”.

What about the “mite or insect species” value (twospotted spider mite; plant: azaleas) of the same molecule?
The value was “twospotted spider mite”.

And the “mite or insect species” value (twospotted spider mite; plant: broccoli)?
Its value is “twospotted spider mite”.

What about the “mite or insect species” value (twospotted spider mite; plant: plum (Japanese)) of the same molecule?
Its value is “twospotted spider mite”.

And the “mite or insect species” value (wheat aphid)?
Its value is “wheat aphid”.

And the “mite or insect species” value (white apple leafhopper)?
Its value is “white apple leafhopper”.

What about the “mite or insect species” value (yellow hickory aphid) of the same molecule?
The value was “yellow hickory aphid”.
